Reference: US5817815A, “Pharmacologically active enantiomers” (Angelini Ricerche S.p.A. Societa Consortile, priority 1993, dated 1998)

Legend:
[1] = tested on: alpha 1 adrenergic receptors; test: affinity for alpha 1 adrenergic receptors, receptor binding test; conditions: for interference with the adrenergic receptor, in words: comparison with racemate; for IC50: receptor binding
Description: (§1) Since an interference with the adrenergic system is an index of undesirable effects, both the capability of binding to alpha 1 adrenergic receptors, as IC50 (Table 2), and the alphalytic activity (Table 3) of the same compounds have been evaluated.
As far as the receptor binding test is concerned, reference is made to "Molecular Pharmacology", 20, 295-301, (1981).

deferent of rat = target: T1, deferent of rat (Rattus norvegicus, UniProt P43140); test: alphalytic activity on an isolated organ (deferent of rat); conditions: comparison of enantiomers and racemate
T1 construct: evaluated on an isolated organ (deferent of rat); from tissue; host or cells: isolated vas deferens of rat
T1 sequence (P43140 1-466): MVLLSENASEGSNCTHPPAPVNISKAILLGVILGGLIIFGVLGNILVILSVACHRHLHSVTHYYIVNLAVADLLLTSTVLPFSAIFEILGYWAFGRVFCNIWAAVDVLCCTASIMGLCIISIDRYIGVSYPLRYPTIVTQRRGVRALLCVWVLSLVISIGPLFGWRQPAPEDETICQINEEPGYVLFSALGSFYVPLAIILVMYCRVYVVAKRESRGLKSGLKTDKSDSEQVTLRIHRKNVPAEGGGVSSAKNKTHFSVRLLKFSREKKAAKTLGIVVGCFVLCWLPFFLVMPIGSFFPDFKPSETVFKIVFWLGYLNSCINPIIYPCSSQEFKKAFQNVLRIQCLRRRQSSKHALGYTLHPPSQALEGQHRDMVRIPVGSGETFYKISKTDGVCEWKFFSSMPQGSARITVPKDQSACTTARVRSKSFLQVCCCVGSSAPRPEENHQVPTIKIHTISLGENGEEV
Protocol: as §1
(§2) In turn, the alphalytic activity was evaluated on an isolated organ (deferent of rat) according to the technique described in "Clinical and Experimental Pharmacology & Physiology", 6, 275-279, (1979).

[2] = target: T2, deferent of rat (Rattus norvegicus); test: as above; conditions: isolated deferent of rat; read-out: Alphalytic activity pA2 (converted)
T2 construct: evaluated on an isolated organ (deferent of rat); from tissue; host or cells: isolated vas deferens of rat
Protocol: as §1, §2

[3] = analgesic activity, phenylquinone test in mice via subcutaneous route; type: in vivo; conditions: for ED50: Mus musculus, sc, mice, subcutaneous, phenylquinone test; for analgesic activity, in words: comparison of enantiomers and racemate
Protocol: Thirty animals were treated with each product.

interference with the adrenergic receptor, in words [1]	IC50 [1] [nM]	alphalytic activity, in words (deferent of rat)	alphalytic activity, in words (deferent of rat; listed as (S) enantiomer)	Kb [2] [nM]	Structure (SMILES)	ED50 [3] [mg/kg]	analgesic activity, in words [3]
lower than those of racemate	981	lower than those of racemate	lower than that of (R) enantiomer	3980	C[C@H]1CN(c2cccc(Cl)c2)CCN1CCCn1nc2ccccn2c1=O [(S), (S)-2-[3-[4-(3-chlorophenyl)-1-(2-methyl)-piperazinyl]-propyl]-1,2,4-triazol[4,3-a]-pyridine-3(2H)-one]	7.8	more active than (R) enantiomer
–	471	–	–	20	CC1CN(c2cccc(Cl)c2)CCN1CCCn1nc2ccccn2c1=O (racemic) [Racemate, reference compound]	> 12.5	less analgesic activity compared to the single enantiomers
lower than those of racemate	533	lower than those of racemate	–	178	C[C@@H]1CN(c2cccc(Cl)c2)CCN1CCCn1nc2ccccn2c1=O [(R), (R)-2-[3-[4-(3-chlorophenyl)-1-(2-methyl)-piperazinyl]-propyl]-1,2,4-triazol[4,3-a]-pyridine-3(2H)-one]	9.02	–
